The values that follow come from publication PMC12326981, “Novel C5α-substituted carbapenems enhance Mycobacterium abscessus killing via selective target binding and reduced hydrolysis by BlaMab” (Antimicrobial Agents and Chemotherapy, 2025).

One series has as its target LDT5 (Mycobacteroides abscessus, UniProt B1MHQ4). Nature of the series: Apparent inhibition constant (nitrocefin, Dixon plot). It counts as biochemical, Mycobacterium abscessus. Particulars: read-out: Ki,app. As for the experimental part:
(§1) Steady-state kinetic studies with JDB/NA-1-157 and JDB/NA-1-208 were performed using purified LDTs and PBPs, including LDT1–5, PBP-B, PBP-lipo, and D,D-carboxypeptidase. The assays were conducted on a BioTek Synergy2 multimode reader equipped with Gen5 software. To determine the Michaelis constant (Km^NCF) for each LDT and PBP, a wide range of NCF concentrations was tested, while the enzyme concentrations were fixed. Absorbance changes at 482 nm were monitored over 10 min. Steady-state kinetic parameters (Vmax and Km) were derived by fitting the experimental data to the Henri–Michaelis–Menten equation using nonlinear least-squares regression in GraphPad Prism version 9. The reaction velocity (v) at a given substrate concentration ([S]) was calculated using equation 2: […]
(§2) The apparent inhibition constants (Ki,app) for JDB/NA-1-157 and JDB/NA-1-208 were determined under the following conditions: an NCF concentration of 5 × Km, fixed concentrations of LDT or PBP enzymes, and varying concentrations of JDB/NA-1-157 and JDB/NA-1-208. Absorbance changes at 482 nm were monitored over a 30 min period for each inhibitor concentration. The data were linearized using a Dixon plot, which involves plotting the reciprocal of the absorbance change (1/ΔA) against the concentrations of JDB/NA-1-157 or JDB/NA-1-208. Apparent Ki,app values were derived from the intersection points on the Dixon plot and were subsequently corrected for substrate concentration and enzyme affinity using equation 3:
(§3) (3) Ki,app=observed Ki,app/1+[NCF]/Km NCF.

The target of another series is PonA2 (Mycobacteroides abscessus, UniProt B1MFV7). The description is as above. In kind it is biochemical, Mycobacterium abscessus. Particulars: Ki,app. As for the experimental part:
as §1, §2, §3

A further series concerns the target PBP B (Mycobacteroides abscessus, UniProt B1MP31). The description is as above. In kind it is biochemical. Particulars: read-out: Ki,app (converted). The procedure:
as §1, §2, §3

The target of the next series is T1, PBP-lipo (Mycobacteroides abscessus, UniProt B1MDC3).
T1 construct: made in house; host or cells: Escherichia coli BL21 (DE3)
T1 sequence (B1MDC3 entry or part of it): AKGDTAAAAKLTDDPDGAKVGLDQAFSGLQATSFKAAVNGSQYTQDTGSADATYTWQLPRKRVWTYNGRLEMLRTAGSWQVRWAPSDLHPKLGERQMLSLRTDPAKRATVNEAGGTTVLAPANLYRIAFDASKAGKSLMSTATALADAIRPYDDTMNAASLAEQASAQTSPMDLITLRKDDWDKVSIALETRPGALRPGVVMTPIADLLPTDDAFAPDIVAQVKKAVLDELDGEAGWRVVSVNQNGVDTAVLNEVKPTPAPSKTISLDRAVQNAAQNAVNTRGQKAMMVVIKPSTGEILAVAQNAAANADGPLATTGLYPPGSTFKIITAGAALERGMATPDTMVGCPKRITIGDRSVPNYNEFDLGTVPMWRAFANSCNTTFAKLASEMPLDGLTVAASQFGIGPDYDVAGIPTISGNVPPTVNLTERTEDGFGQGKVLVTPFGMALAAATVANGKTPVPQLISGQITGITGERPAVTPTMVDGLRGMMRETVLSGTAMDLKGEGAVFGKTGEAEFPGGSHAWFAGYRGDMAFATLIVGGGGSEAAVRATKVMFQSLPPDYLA
The series is described as above. It counts as biochemical. Particulars: Ki,app. As for the experimental part:
as §1, §2, §3

Series [1] concerns Mab ATCC 19977. Nature of the series: MIC testing with drugs pre-incubated in 7H9 broth (effect of drug instability). In kind it is cell-based, Mycobacterium abscessus. The conditions noted are these: for MIC: Mycobacteroides abscessus, ATCC19977. The procedure:
(§4) MICs were determined in duplicate following Clinical Laboratory Standards Institute ([52]) guidelines using Middlebrook 7H9 broth supplemented with 10% (vol/vol) oleic acid-albumin-dextrose-catalase (OADC) and 0.05% (vol/vol) Tween 80, with an inoculum of 5 × 10⁵ CFU/mL. MIC testing of two C5α-substituted carbapenems was conducted both individually and in combination with cephalosporins (cefuroxime and ceftaroline), penicillins (amoxicillin), or BLIs (avibactam or durlobactam + sulbactam). Avibactam, durlobactam, cefuroxime, ceftaroline, and amoxicillin were fixed at concentrations of 4, 1, 2, 4, and 4 mg/L, respectively. Amoxicillin was combined with 4 mg/L avibactam, as it is highly susceptible to hydrolysis by BlaMab ([12], [15], [25]). The MIC was defined as the lowest antibiotic concentration that inhibited visible bacterial growth following 48 h of incubation at 30°C.

In series [2] the test system is Mab strain ATCC 19977 and three clinical isolates (Mab122, Mab686, and UH01). Kind of series: Static concentration time-kill (SCTK) assay. In kind it is cell-based, Mycobacterium abscessus. Particulars: imipenem alone (Fig. S1). The procedure:
SCTK studies were conducted over 5 days in Middlebrook 7H9 broth supplemented with 10% (vol/vol) OADC, 0.2% (vol/vol) glycerol, and 0.05% (vol/vol) Tween 80 in duplicate. The efficacy of JDB/NA-1-157 and JDB/NA-208 was evaluated using Mab strain ATCC 19977 and three clinical isolates (Mab122, Mab686, and UH01) at an initial inoculum of 10^5.5–10^6.3 CFU/mL. […] Bacterial killing was assessed across a wide range of concentrations for JDB/NA-1-157 and JDB/NA-1-208 individually (0.0625–64.0 mg/L).
For the combination study, the concentrations of JDB/NA-1-157 and JDB/NA-1-208 were selected based on MIC results and time-killing profiles of the single-drug study, while the concentrations of other β-lactams and BLIs were chosen based on clinically relevant levels, determined from the predicted average unbound steady-state concentrations (fCss,avg) in plasma at clinically relevant doses ([27]). The drug concentrations used were JDB/NA-1-157, 1 mg/L; JDB/NA-1-208, 8 mg/L; imipenem, 12 mg/L; ceftaroline, 8 mg/L; cefuroxime, 8 mg/L; amoxicillin, 2 mg/L; avibactam, 4 mg/L; durlobactam, 12 mg/L; amikacin, 12 mg/L; clarithromycin, 0.3 mg/L; and cefoxitin, 7 mg/L. The SOC regimen was included for comparison of efficacy. On day 3, the broth was replaced with fresh broth containing the corresponding drug concentrations. For viable cell counts, 100 µL of undiluted or appropriately diluted samples was subcultured on Middlebrook 7H10 agar plates supplemented with 1% (vol/vol) OADC, 0.2% glycerol, and 0.05% (vol/vol) Tween 80. All samples were washed twice with sterile 0.9% saline prior to serial dilution or plating.

A short description of series [3]: Thermal stability in 7H9 broth at 30°C. Particulars: for Degradation percentage: 24 h. As for the experimental part: The stability of the two compounds in 7H9 broth was assessed at 30°C at drug concentrations of 10, 50, and 100 mg/L, with each condition tested in triplicate. Absorbance at 240 nm was measured every 2 h over a 24 h period using a BioTek Synergy2 multimode reader, with data analyzed via Gen5 software to monitor degradation or changes in stability. To evaluate the impact of thermal instability, MIC tests were performed using Mab ATCC 19977. Compounds were tested at time points of 0 h (no incubation) and 6, 24, and 48 h of incubation at 30°C. Imipenem and meropenem, known to be thermally unstable β-lactams, were included as positive controls. The MIC results were recorded after 48 h of incubation. Detailed MIC testing protocols were identical to those described below.

Series [4] has as its system C[C@@H](O)[C@H]1C(=O)N2C(C(=O)O)=C(S[C@@H]3CN[C@H](C(=O)N(C)C)C3)C[C@]12C. Nature of the series: Steady-state kinetics of hydrolysis by BlaMab. It counts as biochemical, Mycobacterium abscessus. Particulars: other: best-fit value (95% confidence interval), MES buffer pH 6.4, room temperature.
Series [5] has as its system Mab ATCC 19977. Nature of the series: MIC testing against Mab ATCC 19977, single agent and combinations. It counts as cell-based, Mycobacterium abscessus. The procedure:
as §4, with “Amoxicillin was combined with 4 mg/L avibactam, as it is highly susceptible to hydrolysis by BlaMab ([12], [15], [25]).” left out

Another series has as its target LDT1 (Mycobacteroides abscessus, UniProt B1MDC1). Nature of the series: Apparent inhibition constant (nitrocefin, Dixon plot). It counts as biochemical, Mycobacterium abscessus. Particulars: Ki,app. The procedure:
as §1, §2, §3

The next series has as its target LDT2 (Mycobacteroides abscessus, UniProt B1MMQ4). The description is as above. It counts as biochemical, Mycobacterium abscessus. The conditions noted are these: Ki,app. The procedure: as §1, §2, §3
[6] abbreviates: drug incubated 6 h in 7H9 broth at 30°C.
Where [7] appears, read: drug incubated 24 h in 7H9 broth at 30°C.
The mark [8] stands for this setting: drug incubated 48 h in 7H9 broth at 30°C.
Where [9] appears, read: Mycobacteroides abscessus, ATCC19977, 48 h, alone (single agent), read-out: MIC.

PBP B, sequence (B1MP31 entry or part of it): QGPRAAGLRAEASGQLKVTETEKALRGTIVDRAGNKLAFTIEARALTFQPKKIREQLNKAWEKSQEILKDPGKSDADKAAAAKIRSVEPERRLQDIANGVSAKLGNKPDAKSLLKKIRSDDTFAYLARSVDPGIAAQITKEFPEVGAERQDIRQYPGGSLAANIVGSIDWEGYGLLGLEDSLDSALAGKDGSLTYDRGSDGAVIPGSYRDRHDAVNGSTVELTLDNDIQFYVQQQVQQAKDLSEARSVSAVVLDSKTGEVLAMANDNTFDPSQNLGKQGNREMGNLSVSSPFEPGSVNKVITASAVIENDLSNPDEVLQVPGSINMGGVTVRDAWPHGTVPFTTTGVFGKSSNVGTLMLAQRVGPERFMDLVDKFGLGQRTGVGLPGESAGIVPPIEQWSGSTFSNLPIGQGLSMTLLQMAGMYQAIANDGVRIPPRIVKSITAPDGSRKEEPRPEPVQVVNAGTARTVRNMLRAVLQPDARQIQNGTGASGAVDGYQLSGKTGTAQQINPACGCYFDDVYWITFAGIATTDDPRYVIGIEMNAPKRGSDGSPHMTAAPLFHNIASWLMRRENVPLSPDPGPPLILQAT
PonA2, sequence (B1MFV7 entry or part of it): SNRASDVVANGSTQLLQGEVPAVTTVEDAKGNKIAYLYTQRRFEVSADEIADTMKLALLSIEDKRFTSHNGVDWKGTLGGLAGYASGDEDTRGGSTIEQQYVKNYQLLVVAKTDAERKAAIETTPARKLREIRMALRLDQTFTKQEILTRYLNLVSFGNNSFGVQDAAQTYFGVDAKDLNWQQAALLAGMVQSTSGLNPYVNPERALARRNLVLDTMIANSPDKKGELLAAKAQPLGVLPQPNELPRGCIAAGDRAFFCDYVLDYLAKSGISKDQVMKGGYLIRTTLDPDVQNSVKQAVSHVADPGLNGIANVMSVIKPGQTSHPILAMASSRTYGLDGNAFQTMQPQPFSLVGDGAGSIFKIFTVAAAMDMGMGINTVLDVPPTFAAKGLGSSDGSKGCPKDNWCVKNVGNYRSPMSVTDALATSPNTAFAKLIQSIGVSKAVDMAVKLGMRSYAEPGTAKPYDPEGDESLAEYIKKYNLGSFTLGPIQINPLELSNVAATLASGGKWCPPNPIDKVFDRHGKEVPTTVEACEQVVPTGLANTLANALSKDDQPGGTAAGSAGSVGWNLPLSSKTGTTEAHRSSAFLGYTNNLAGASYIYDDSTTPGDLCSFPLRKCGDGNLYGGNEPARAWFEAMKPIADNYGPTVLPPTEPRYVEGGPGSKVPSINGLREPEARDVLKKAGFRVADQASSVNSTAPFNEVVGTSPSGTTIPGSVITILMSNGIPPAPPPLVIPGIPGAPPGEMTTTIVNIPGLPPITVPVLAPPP
LDT2, sequence (B1MMQ4 entry or part of it): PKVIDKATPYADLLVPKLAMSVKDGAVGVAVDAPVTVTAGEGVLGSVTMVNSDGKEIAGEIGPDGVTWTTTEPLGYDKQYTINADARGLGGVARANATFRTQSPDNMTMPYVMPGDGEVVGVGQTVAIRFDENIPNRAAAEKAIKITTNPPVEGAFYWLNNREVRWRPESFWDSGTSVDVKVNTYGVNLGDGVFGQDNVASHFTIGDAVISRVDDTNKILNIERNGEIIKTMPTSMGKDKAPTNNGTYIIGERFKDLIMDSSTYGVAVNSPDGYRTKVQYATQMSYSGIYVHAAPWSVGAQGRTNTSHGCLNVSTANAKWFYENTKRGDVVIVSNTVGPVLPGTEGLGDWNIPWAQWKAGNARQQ
LDT1, sequence (B1MDC1 entry or part of it): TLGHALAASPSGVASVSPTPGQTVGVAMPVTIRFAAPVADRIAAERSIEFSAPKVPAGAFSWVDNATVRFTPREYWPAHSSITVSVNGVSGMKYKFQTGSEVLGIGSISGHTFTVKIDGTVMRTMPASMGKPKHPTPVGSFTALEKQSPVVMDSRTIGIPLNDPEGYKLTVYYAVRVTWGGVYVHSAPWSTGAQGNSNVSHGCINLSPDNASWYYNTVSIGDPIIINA
LDT5, sequence (B1MHQ4 entry or part of it): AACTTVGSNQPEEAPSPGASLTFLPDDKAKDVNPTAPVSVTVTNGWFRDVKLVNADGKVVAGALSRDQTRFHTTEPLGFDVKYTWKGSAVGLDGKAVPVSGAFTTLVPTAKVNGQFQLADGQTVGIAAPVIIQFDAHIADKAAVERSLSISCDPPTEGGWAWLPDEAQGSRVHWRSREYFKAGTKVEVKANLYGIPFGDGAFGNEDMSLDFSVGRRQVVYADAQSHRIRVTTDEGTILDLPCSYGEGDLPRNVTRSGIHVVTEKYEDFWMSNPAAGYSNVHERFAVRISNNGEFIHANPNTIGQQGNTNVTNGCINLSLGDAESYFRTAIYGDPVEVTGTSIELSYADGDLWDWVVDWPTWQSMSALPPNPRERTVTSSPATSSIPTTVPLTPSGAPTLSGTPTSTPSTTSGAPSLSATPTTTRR

`C[C@@H](O)[C@H]1C(=O)N2C(C(=O)O)=C(SCCN=CN)C[C@H]12` [IPM, imipenem]: the Ki at LDT5 was 100000 nM; at PonA2 it was 3140 nM; on PBP B, 1470 nM; at PBP-lipo it was 1840 nM. Also, the minimum inhibitory concentration (MIC) in the series with Mab ATCC 19977 [1] (setting [6]) is 1 µg/mL; in the series on Mab ATCC 19977 [1] (setting [7]), 32 µg/mL; in the series with Mab ATCC 19977 [1] (setting [8]), greater than 64 µg/mL; in the series on Mab ATCC 19977 [1] (no incubation of drug), 1 µg/mL. For the same compound, the “MIC fold increase after 24 h incubation” value with Mab ATCC 19977 [1] (drug incubated 24 h) came to 32 fold. Moreover, the “MIC fold increase after 48 h incubation” value with Mab ATCC 19977 [1] (drug incubated 48 h) is listed as greater than 64 fold. Further, in [2], the “log10 reduction in bacterial load” value is listed as roughly 1.5 log10. In addition, in [3], the “additional degradation by 24 h” value is recorded as “approximately 25%”. For the same compound, the “degradation within the first 6 h” value in [3] is “approximately 25%”. In addition, the half-life in series [3] (7H9 broth) was 10 h. Also, the figures for the Degradation percentage in series [3] (10 mg/L), in series [3] (50 mg/L) and in series [3] (100 mg/L) were 67.8%, 51.4% and 49.3%, respectively.

In the case of “BlaMab (Mycobacteroides abscessus ATCC 19977)”, in series [4], the Km is reported as 9.054 (3.677–17.50) µM, the turnover number (kcat) was determined as 0.03 s⁻¹ and the kcat/Km came to 3000 M⁻¹ s⁻¹.

For `CCO/N=C(\C(=O)N[C@@H]1C(=O)N2C(C(=O)[O-])=C(Sc3nc(-c4cc[n+](C)cc4)cs3)CS[C@H]12)c1nsc(N)n1` [CFT, ceftaroline, reference compound], in the series with Mab ATCC 19977 [5] (setting [9]), the MIC is 16 µg/mL.

As to `CC1=C[C@@H]2CN(C(=O)N2OS(=O)(=O)O)[C@@H]1C(N)=O` [DUR, durlobactam, reference compound], the MIC in the series on Mab ATCC 19977 [5] (setting [9]) came to 8 µg/mL.

Turning to `NC(=O)[C@@H]1CC[C@@H]2CN1C(=O)N2OS(=O)(=O)O` [AVI, avibactam, reference compound], the MIC in the series on Mab ATCC 19977 [5] (setting [9]) is greater than 128 µg/mL.

In the case of `C[C@@H](O)[C@H]1C(=O)N2C(C(=O)O)=C(S[C@@H]3CN[C@H](C(=O)N(C)C)C3)[C@H](C)[C@H]12` [MEM, meropenem], the Ki on LDT1 is 206 nM; on PonA2, 143 nM; at LDT2, 31.3 nM; at PBP B, 965 nM. Further, the MIC came to 4 µg/mL with Mab ATCC 19977 [1] (setting [6]), 16 µg/mL in the series on Mab ATCC 19977 [1] (setting [7]), 16 µg/mL in the series with Mab ATCC 19977 [1] (setting [8]) and 4 µg/mL in the series with Mab ATCC 19977 [1] (no incubation of drug). Besides, the “MIC rise after 24 and 48 h incubation vs nonincubated” value in the series on Mab ATCC 19977 [1] (drug incubated 24 and 48 h) is “fourfold”. Moreover, the Degradation percentage in series [3] (10 mg/L) was determined as 11.7%; in series [3] (50 mg/L), 15.8%; in [3] (100 mg/L) it was 16.1%.

Take `CO/N=C(\C(=O)N[C@@H]1C(=O)N2C(C(=O)O)=C(COC(N)=O)CS[C@H]12)c1ccco1` [CXM, cefuroxime, reference compound]: the MIC in the series on Mab ATCC 19977 [5] (setting [9]) was 4 µg/mL.

On to `CC1(C)S[C@@H]2[C@H](NC(=O)[C@H](N)c3ccc(O)cc3)C(=O)N2[C@H]1C(=O)O` [AMX, amoxicillin, reference compound], for which the MIC in the series on Mab ATCC 19977 [5] (setting [9]) was 128 µg/mL; with Mab ATCC 19977 [5] (no carbapenem, with AVI), 32 µg/mL.
